Measurements published in patent publication US7915276B2, “Berberrubine derivatives having antifungal activities” (priority 2006, dated 2011).

Assays:
[1] = target: T1, chitin synthase 2 of Saccharomyces cerevisiae ECY38-38A(pAS6) (Saccharomyces cerevisiae, UniProt P14180); assay: In vitro enzyme assay for chitin synthase 2 of Saccharomyces cerevisiae (enzyme 2); format: biochemical; details: relative to polyoxin D (50% inhibitory activity = value 5)
T1 construct: made in house; host or cells: Saccharomyces cerevisiae ECY38-38A (chs1-23 chs2::LEU2 cal1/csd2) carrying plasmid pAS6, grown in galactose medium; 130,000 x g membrane pellet
Method: Crude enzyme was prepared using the recombinant Saccharomyces cerevisiae ECY38-38A(pAS6) (MATa chs1-23 chs2::LEU2 cal 1/csd 2 ura 3-52 trp 1-1 leu 2-2 pAS6) strain, which can produce the chitin synthase 2 only. The strain was inoculated with the YPG culture medium (1% yeast extract, 2% peptone, 2% galactose) and cultured at 30° C. overnight. Then, it was inoculated with a fresh YPG culture medium and cultured for 15-17 hours until the Absorbance at 550 nm reaches 1.0. The cells were collected and suspended in 50 mM Tris-HCl (pH 7.5) buffer containing 5 mM magnesium acetate. After centrifugation at 8,000×g for 10 minutes, the pellets were suspended in the same Tris-HCl buffer solution. The suspension was divided into aliquots in 50 mL conical test tubes. After adding the glass beads, the cells were disrupted by vigorously vortexing with an interval of 30 seconds. The cell residues were removed by centrifuging at 3,000×g for 5 minutes. The supernatant was ultra-centrifuged at 130,000×g for 1 hour. The resultant pellets were collected and suspended in 50 mM Tris-HCl (pH 7.5) containing 33% glycerol, to a final volume of 1.6 mg/g (wet weight) of yeast used. The suspension was divided into aliquots and kept at −70° C. until it is used.
(§1) The inhibitory activities against the chitin synthase 1 of Candida albicans chs2 Δ chs 3 Δ (abbreviated as ‘enzyme 1’) and the chitin synthase 2 of Saccharomyces cerevisiae ECY38-38A(pAS6)(abbreviated as ‘enzyme 2’) was examined for compound Nos. 1 to 70 compound and polyoxin D, a positive control compound.
(§2) The inhibitory activity against the chitin synthase 1 prepared from Candida albicans and the chitin synthase 2 prepared from Saccharomyces cerevisiae were examined as follows. A reaction mixture containing 32 mM Tris-HCl (pH 7.5), 2 mM cobalt acetate, 1.1 mM UDP-[U-^14C]-N-acetyl-d-glucosamine (GlcNAc) (400,000 cpm/μmol), 2 μL of trypsin (0.75 mg/mL), 20 μL of each crude enzyme and 14 μL of each test sample was kept at 30° C. for 15 minutes to activate the enzyme. Then, 2 μL of trypsin inhibitor (1.5 mg/mL) was added and the mixture was kept in an ice bath for 10 minutes to deactivate trypsin. 2 μL of 0.8 M N-acetyl-d-glucosamine was added to a total volume of 50 μL and reaction was performed at 30° C. for 90 minutes. The reaction was stopped using 1 mL of 10% TCA solution and the reaction solution was filtered with a GF/C filter and dried at room temperature. After adding 3 mL of a scintillation cocktail solution, the amount of isotopes was measured using a liquid scintillation counter. Percentage inhibition against each enzyme was calculated by the following Equation 1.
(§3) The control group was not added with a test sample in the reaction mixture and that of the untreated group contained neither the test sample nor the crude enzyme.
(§4) A 50% inhibitory activity of polyoxin D against the enzyme was given the value 5. A compound having the same inhibitory activity as that of polyoxin D at the same concentration was given the value 5. Compounds having the inhibitory activity at 2-fold, 4-fold, 8-fold and 16-fold higher concentrations than that of polyoxin D were given the values of 4, 3, 2 and 1, respectively. On the other hand, compounds having the inhibitory activity at ½, ¼ and ⅛ lower concentrations than that of polyoxin D were given the values of 6, 7 and 8, respectively.

[2] = target: T2, chitin synthase 1 of Candida albicans chs2 Δ chs 3 Δ (Candida albicans, UniProt P23316); assay: In vitro enzyme assay for chitin synthase 1 of Candida albicans (enzyme 1); format: biochemical; details: relative to polyoxin D (50% inhibitory activity = value 5)
T2 construct: Crude enzyme was prepared using the Candida albicans chs2 Δ chs 3 Δ mutant; endogenous in cells; host or cells: Candida albicans chs2Δ/chs2Δ chs3Δ/chs3Δ mutant; 130,000 x g membrane pellet
Method: Crude enzyme was prepared using the Candida albicans chs2 Δ chs 3 Δ mutant (chs2 Δ::hisG/chs2 Δ::hisG chs3 Δ::hisG/chs3 Δ::hisG) strain, which can only produce the chitin synthase 1. The strain was inoculated with the SDA (Sabouraud dextrose agar) culture medium (4% dextrose, 1% peptone, pH 5.6) and cultured at 30° C. for 15-17 hours until the absorbance at 550nm reaches 0.7. The cells were collected and suspended in a 50 mM Tris-HCl (pH 7.5) buffer solution containing 5 mM magnesium acetate. After centrifugation at 8,000×g for 10 minutes, the pellets were suspended in the same Tris-HCl buffer solution. The suspension was divided into aliquots in 50 mL conical test tubes. After adding glass beads, the cells were disrupted by vigorously vortexing with an interval of 30 seconds. The cell residues were removed by centrifuging at 3,000×g for 5 minutes. The supernatant was ultra-centrifuged at 130,000×g for 1 hour. The resultant pellets were collected and suspended in 50 mM Tris-HCl (pH 7.5) containing 33% glycerol, to a final volume of 1.6 mg/g (wet weight) of yeast used. The suspension was divided into aliquots and kept at −70° C. until it is used.
as §1, §2, §3, §4

T1 sequence (P14180 whole entry): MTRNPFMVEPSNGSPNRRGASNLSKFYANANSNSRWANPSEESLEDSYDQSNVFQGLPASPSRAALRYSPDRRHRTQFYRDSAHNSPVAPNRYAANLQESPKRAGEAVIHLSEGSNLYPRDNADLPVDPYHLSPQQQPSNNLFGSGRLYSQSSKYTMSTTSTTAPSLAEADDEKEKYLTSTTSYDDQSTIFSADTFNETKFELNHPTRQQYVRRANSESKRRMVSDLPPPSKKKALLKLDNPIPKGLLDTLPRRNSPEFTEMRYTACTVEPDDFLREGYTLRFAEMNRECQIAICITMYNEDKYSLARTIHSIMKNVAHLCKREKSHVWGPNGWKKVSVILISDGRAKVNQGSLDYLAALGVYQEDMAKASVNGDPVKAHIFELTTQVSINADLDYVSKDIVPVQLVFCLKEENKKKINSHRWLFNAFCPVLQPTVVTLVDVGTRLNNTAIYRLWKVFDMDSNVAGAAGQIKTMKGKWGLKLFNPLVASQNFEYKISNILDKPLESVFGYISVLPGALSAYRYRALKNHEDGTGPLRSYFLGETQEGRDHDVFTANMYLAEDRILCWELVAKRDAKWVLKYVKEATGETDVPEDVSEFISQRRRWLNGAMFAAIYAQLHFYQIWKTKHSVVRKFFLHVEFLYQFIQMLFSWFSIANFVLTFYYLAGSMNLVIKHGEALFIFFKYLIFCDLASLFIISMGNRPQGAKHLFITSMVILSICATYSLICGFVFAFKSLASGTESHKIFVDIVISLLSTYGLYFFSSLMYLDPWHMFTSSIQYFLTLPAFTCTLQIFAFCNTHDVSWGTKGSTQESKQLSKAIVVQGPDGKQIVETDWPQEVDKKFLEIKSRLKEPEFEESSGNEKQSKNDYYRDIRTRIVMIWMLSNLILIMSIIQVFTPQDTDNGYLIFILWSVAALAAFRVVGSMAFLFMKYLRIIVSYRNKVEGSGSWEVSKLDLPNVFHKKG
T2 sequence (P23316 whole entry, stated change not applied): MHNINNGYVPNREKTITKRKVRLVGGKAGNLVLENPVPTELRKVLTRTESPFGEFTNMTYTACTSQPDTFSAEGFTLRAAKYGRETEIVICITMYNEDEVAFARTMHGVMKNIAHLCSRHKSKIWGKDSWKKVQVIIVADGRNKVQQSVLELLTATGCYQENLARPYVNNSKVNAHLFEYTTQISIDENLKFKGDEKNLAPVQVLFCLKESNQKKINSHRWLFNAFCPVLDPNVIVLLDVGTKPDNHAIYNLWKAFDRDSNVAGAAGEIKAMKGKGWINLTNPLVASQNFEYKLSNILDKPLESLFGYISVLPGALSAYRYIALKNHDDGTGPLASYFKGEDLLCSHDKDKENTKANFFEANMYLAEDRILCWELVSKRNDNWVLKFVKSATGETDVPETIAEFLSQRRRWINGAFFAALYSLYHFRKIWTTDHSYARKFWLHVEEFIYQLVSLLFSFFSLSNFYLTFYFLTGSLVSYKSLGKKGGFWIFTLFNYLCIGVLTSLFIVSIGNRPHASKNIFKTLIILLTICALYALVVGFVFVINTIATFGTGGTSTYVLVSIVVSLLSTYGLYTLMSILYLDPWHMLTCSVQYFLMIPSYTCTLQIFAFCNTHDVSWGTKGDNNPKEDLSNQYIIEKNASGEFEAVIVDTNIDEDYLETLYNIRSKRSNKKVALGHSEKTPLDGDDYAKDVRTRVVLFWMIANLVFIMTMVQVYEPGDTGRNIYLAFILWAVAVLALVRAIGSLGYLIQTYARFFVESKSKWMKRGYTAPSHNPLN

| Compound | Relative activity Enzyme 2 [1] | Relative activity Enzyme 1 [2] |
| --- | --- | --- |
| 13-(4-Trifluoromethoxybenzyl)-9-O-hexylberberrubine iodide [Compound No. 34] | 5 (A compound having the same inhibitory activity as that of polyoxin D at the same concentration was given the value 5) | 2 (Compounds having the inhibitory activity at 2-fold, 4-fold, 8-fold and 16-fold higher concentrations than that of polyoxin D were given the values of 4, 3, 2 and 1, respectively) |
| 13-(4-Trifluoromethoxybenzyl)berberrubine [Compound No. 3] | 3 (Compounds having the inhibitory activity at 2-fold, 4-fold, 8-fold and 16-fold higher concentrations than that of polyoxin D were given the values of 4, 3, 2 and 1, respectively) | 1 (Compounds having the inhibitory activity at 2-fold, 4-fold, 8-fold and 16-fold higher concentrations than that of polyoxin D were given the values of 4, 3, 2 and 1, respectively) |
| 13-(4-Trifluoromethylbenzyl)-9-O-butylberberrubine chloride [Compound No. 68] | 6 (compounds having the inhibitory activity at ½, ¼ and ⅛ lower concentrations than that of polyoxin D were given the values of 6, 7 and 8, respectively) | 3 (Compounds having the inhibitory activity at 2-fold, 4-fold, 8-fold and 16-fold higher concentrations than that of polyoxin D were given the values of 4, 3, 2 and 1, respectively) |
| 13-(4-Trifluoromethylbenzyl)-9-O-butylberberrubine iodide [Compound No. 36] | 6 (compounds having the inhibitory activity at ½, ¼ and ⅛ lower concentrations than that of polyoxin D were given the values of 6, 7 and 8, respectively) | 3 (Compounds having the inhibitory activity at 2-fold, 4-fold, 8-fold and 16-fold higher concentrations than that of polyoxin D were given the values of 4, 3, 2 and 1, respectively) |
| 13-(4-Trifluoromethylbenzyl)-9-O-hexylberberrubine chloride [Compound No. 69] | 5 (A compound having the same inhibitory activity as that of polyoxin D at the same concentration was given the value 5) | 3 (Compounds having the inhibitory activity at 2-fold, 4-fold, 8-fold and 16-fold higher concentrations than that of polyoxin D were given the values of 4, 3, 2 and 1, respectively) |
| 13-(4-Trifluoromethylbenzyl)-9-O-hexylberberrubine iodide [Compound No. 37] | 5 (A compound having the same inhibitory activity as that of polyoxin D at the same concentration was given the value 5) | 2 (Compounds having the inhibitory activity at 2-fold, 4-fold, 8-fold and 16-fold higher concentrations than that of polyoxin D were given the values of 4, 3, 2 and 1, respectively) |
| 13-(4-Trifluoromethylbenzyl)berberrubine [Compound No. 4] | 3 (Compounds having the inhibitory activity at 2-fold, 4-fold, 8-fold and 16-fold higher concentrations than that of polyoxin D were given the values of 4, 3, 2 and 1, respectively) | 1 (Compounds having the inhibitory activity at 2-fold, 4-fold, 8-fold and 16-fold higher concentrations than that of polyoxin D were given the values of 4, 3, 2 and 1, respectively) |
| 13-(4-tert-Butylbenzyl)berberrubine [Compound No. 5] | 4 (Compounds having the inhibitory activity at 2-fold, 4-fold, 8-fold and 16-fold higher concentrations than that of polyoxin D were given the values of 4, 3, 2 and 1, respectively) | 2 (Compounds having the inhibitory activity at 2-fold, 4-fold, 8-fold and 16-fold higher concentrations than that of polyoxin D were given the values of 4, 3, 2 and 1, respectively) |
| COc1ccc2c(Cc3ccc(C(F)(F)F)cc3)c3[n+](cc2c1OC)CCc1cc2c(cc1-3)OCO2.[Cl-] [Comparative compound 2, reference compound] | 2 (Compounds having the inhibitory activity at 2-fold, 4-fold, 8-fold and 16-fold higher concentrations than that of polyoxin D were given the values of 4, 3, 2 and 1, respectively) | <1 (Compounds having the inhibitory activity at 2-fold, 4-fold, 8-fold and 16-fold higher concentrations than that of polyoxin D were given the values of 4, 3, 2 and 1, respectively) |
| COc1ccc2c(Cc3ccc(C(OC)(OC)OC)cc3)c3[n+](cc2c1OC)CCc1cc2c(cc1-3)OCO2.[Cl-] [Comparative compound 3, reference compound] | 1 (Compounds having the inhibitory activity at 2-fold, 4-fold, 8-fold and 16-fold higher concentrations than that of polyoxin D were given the values of 4, 3, 2 and 1, respectively) | <1 (Compounds having the inhibitory activity at 2-fold, 4-fold, 8-fold and 16-fold higher concentrations than that of polyoxin D were given the values of 4, 3, 2 and 1, respectively) |
| COc1ccc2c(Cc3cc(F)c(F)c(F)c3)c3[n+](cc2c1OCc1ccc(C(C)(C)C)cc1)CCc1cc2c(cc1-3)OCO2.[Br-] [Compound No. 29, 13-(3,4,5-Trifluorobenzyl)-9-O-(4-tert-butylbenzyl)berberrubine bromide] | 5 (A compound having the same inhibitory activity as that of polyoxin D at the same concentration was given the value 5) | 2 (Compounds having the inhibitory activity at 2-fold, 4-fold, 8-fold and 16-fold higher concentrations than that of polyoxin D were given the values of 4, 3, 2 and 1, respectively) |
| COc1cc(Cc2c3[n+](cc4c(OCc5ccc(C(C)(C)C)cc5)c(OC)ccc24)CCc2cc4c(cc2-3)OCO4)cc(OC)c1OC.[Br-] [Compound No. 32, 13-(3,4,5-Trimethoxybenzyl)-9-O-(4-tert-butylbenzyl)berberrubine bromide] | 4 (Compounds having the inhibitory activity at 2-fold, 4-fold, 8-fold and 16-fold higher concentrations than that of polyoxin D were given the values of 4, 3, 2 and 1, respectively) | 2 (Compounds having the inhibitory activity at 2-fold, 4-fold, 8-fold and 16-fold higher concentrations than that of polyoxin D were given the values of 4, 3, 2 and 1, respectively) |
| COc1ccc2c(Cc3ccc(OC(F)(F)F)cc3)c3[n+](cc2c1OCc1ccc(C(C)(C)C)cc1)CCc1cc2c(cc1-3)OCO2.[Br-] [Compound No. 35, 13-(4-Trifluoromethoxybenzyl)-9-O-(4-tert-butylbenzyl)berberrubine bromide] | 5 (A compound having the same inhibitory activity as that of polyoxin D at the same concentration was given the value 5) | 2 (Compounds having the inhibitory activity at 2-fold, 4-fold, 8-fold and 16-fold higher concentrations than that of polyoxin D were given the values of 4, 3, 2 and 1, respectively) |
